How the values were obtained:
[1] = system: cytokine gene expression (IL-1A, IL-1B, 1L-04, IL-6 and TNFα); conditions: similarly designed studies; cited from earlier work
MPO activity = assay: Colonic inflammation by MPO assay in distal colon tissue, TNBS colitis; format: in vivo, Male Sprague Dawley rats; conditions: 11 days after TNBS, 8 days of treatment; mean±SEM; TNBS colitis 703+130
Description: Fasted animals were lightly anesthetized with isoflurane and then subjected to enema administration of TNBS and subsequently study drugs. The experimental protocol is similar to that previously described (20). The tip of polyethylene catheter was advanced […] 8 cm to the distal colon and a single dose of TNBS (Sigma, St. […] Following the administration of TNBS the animals were maintained in a head-down position for approximately 60 seconds to prevent leakage of the infusate. Three days after TNBS dosing rats were randomly assigned to receive one of the following treatments by enema in a manner similar to that used for TNBS administration. The TNBS treated animals received one of the following therapies 5-ASA (100 mg/kg) alone or 5-ASA in combination with one of the following: vitamin C (100 mg/kg), phenyl butylnitrone (PBN; 30 mg/kg) and vitamin E (a tocopherol; 50 mg/kg solubilized in DMSO). The doses of selected antioxidants were derived from the literature in which these agents had been used in experimental models of disease or IBD (19, 22, 23). Comparator groups included TNBS dosed rats that received 8 doses of rectal saline and saline treated controls. Rats were treated for 8 days and then sacrificed. MPO activity was measured in colonic tissue samples by colorimetric assay. […] The absorbance changes were read at 450 nm and recorded. Results are expressed as nanograms per gram of tissue. […]

TNBS colitis [2] = assay: Macroscopic injury score of distal colon in TNBS colitis, rectal (enema) treatment; format: in vivo, Male Sprague Dawley rats; conditions: 11 days after TNBS, 8 days of daily rectal treatment, mean±SEM, scale of Table 1, TNBS alone 5.9±0.6
Description: (§1) Male Sprague Dawley rats weighing 200-250 grams were housed in the animal facility in cages containing contact bedding. Rats were deprived of food but not water for 24 hrs prior to the induction of colitis. Institutional approval for experimental protocols was provided by the research and animal care committees of the Research Services at the Oklahoma City Veterans Administration Medical Center.
(§2) Fasted animals were lightly anesthetized with isoflurane and then subjected to enema administration of TNBS and subsequently study drugs. The experimental protocol is similar to that previously described (20). The tip of polyethylene catheter was advanced transanally 8 cm to the distal colon and a single dose of TNBS (Sigma, St. Louis, Mo.), was instilled intraluminally (15 mg of TNBS dissolved in a 0.6 ml volume of 50% ethanol) to induce colitis. Following the administration of TNBS the animals were maintained in a head-down position for approximately 60 seconds to prevent leakage of the infusate.
Three days after TNBS dosing rats were randomly assigned to receive one of the following treatments by enema in a manner similar to that used for TNBS administration. […]
Inflammation was present if the mucosa was erythematous. […] Once macroscopic damage was assessed full thickness colonic tissue samples were taken from inflamed areas and processed for histology.

TNBS colitis [3] = assay: Microscopic (histological) injury of distal colon in TNBS colitis, rectal (enema) treatment; format: in vivo, Male Sprague Dawley rats
Description: as §1, §2
Three days after TNBS dosing rats were randomly assigned to receive one of the following treatments by enema in a manner similar to that used for TNBS administration. The TNBS treated animals received one of the following therapies 5-ASA (100 mg/kg) alone or 5-ASA in combination with one of the following: vitamin C (100 mg/kg), phenyl butylnitrone (PBN; 30 mg/kg) and vitamin E (a tocopherol; 50 mg/kg solubilized in DMSO). The doses of selected antioxidants were derived from the literature in which these agents had been used in experimental models of disease or IBD (19, 22, 23). Comparator groups included TNBS dosed rats that received 8 doses of rectal saline and saline treated controls. Rats were treated for 8 days and then sacrificed.
Histological assessment was used to measure colonic injury. Colonic tissue samples taken from the distal colon were immersed in 10% phosphate buffered formalin and subsequently embedded in paraffin. Sections of 3 micron thickness were stained with hematoxylin and eosin. The slides were then evaluated by a pathologist for epithelial damage, architectural changes, polymorphonuclear leukocyte (PMN) infiltration, mononuclear cell infiltration, and ulceration. The microscopic features of colitis were graded on a 0-3 scale with 0 being normal and 3 representing severe or most intense abnormality. In addition to scoring individual features of colitis, an aggregate score of colitis for each rat was tabulated by adding together individual parameter scores, thus, providing a global assessment of colitis.

[4] = distal colonic specimen, 8 days of topical treatment begun 3 days after TNBS

| Compound | cytokine gene expression elicited by TNBS [1] | MPO activity in the distal colon (MPO activity) | macroscopic injury score (TNBS colitis [2]) | global microscopic injury score (TNBS colitis [3]; distal colon, 11 days after TNBS, 8 days of daily rectal treatment, mean±SEM, sum of indices graded 0-3, TNBS alone 13.3±0.5) | inflammation in representative photomicrograph (TNBS colitis [3]; [4]) | mucosal ulceration in representative photomicrograph (TNBS colitis [3]; [4]) | reduction of global microscopic colitis vs TNBS (TNBS colitis [3]; printed as reduction/decrease) |
| --- | --- | --- | --- | --- | --- | --- | --- |
| CC(=O)N[C@@H](CS)C(=O)O [NAC, N-acetylcysteine] | did not achieve this degree of statistical distinction | – | – | – | – | – | – |
| Nc1ccc(O)c(C(=O)O)c1 [5-ASA, 5-aminosalicylic acid] | did not achieve this degree of statistical distinction | 354±81 ng/gm | 3.8±0.4 | 9.1±1.0 | mild inflammation in the submucosa | an area of mucosal ulceration | 31% |
